Assays:
hNav1.7 = hNav1.7 (Homo sapiens, UniProt Q15858); test: cell-based; assay type: cell-based; details: Table 12; PatchXpress, tonic block; read-out: PX hNav1.7 Tonic IC50
hNav1.4 = hNav1.4 (Homo sapiens, UniProt P35499); test: cell-based; assay type: cell-based; details: Table 12; for Nav1.4/Nav1.7: ratio of PX tonic IC50 values; for IC50: PatchXpress, tonic block, read-out: PX hNav1.4 Tonic IC50
Sequence of hNav1.4 (P35499 whole entry): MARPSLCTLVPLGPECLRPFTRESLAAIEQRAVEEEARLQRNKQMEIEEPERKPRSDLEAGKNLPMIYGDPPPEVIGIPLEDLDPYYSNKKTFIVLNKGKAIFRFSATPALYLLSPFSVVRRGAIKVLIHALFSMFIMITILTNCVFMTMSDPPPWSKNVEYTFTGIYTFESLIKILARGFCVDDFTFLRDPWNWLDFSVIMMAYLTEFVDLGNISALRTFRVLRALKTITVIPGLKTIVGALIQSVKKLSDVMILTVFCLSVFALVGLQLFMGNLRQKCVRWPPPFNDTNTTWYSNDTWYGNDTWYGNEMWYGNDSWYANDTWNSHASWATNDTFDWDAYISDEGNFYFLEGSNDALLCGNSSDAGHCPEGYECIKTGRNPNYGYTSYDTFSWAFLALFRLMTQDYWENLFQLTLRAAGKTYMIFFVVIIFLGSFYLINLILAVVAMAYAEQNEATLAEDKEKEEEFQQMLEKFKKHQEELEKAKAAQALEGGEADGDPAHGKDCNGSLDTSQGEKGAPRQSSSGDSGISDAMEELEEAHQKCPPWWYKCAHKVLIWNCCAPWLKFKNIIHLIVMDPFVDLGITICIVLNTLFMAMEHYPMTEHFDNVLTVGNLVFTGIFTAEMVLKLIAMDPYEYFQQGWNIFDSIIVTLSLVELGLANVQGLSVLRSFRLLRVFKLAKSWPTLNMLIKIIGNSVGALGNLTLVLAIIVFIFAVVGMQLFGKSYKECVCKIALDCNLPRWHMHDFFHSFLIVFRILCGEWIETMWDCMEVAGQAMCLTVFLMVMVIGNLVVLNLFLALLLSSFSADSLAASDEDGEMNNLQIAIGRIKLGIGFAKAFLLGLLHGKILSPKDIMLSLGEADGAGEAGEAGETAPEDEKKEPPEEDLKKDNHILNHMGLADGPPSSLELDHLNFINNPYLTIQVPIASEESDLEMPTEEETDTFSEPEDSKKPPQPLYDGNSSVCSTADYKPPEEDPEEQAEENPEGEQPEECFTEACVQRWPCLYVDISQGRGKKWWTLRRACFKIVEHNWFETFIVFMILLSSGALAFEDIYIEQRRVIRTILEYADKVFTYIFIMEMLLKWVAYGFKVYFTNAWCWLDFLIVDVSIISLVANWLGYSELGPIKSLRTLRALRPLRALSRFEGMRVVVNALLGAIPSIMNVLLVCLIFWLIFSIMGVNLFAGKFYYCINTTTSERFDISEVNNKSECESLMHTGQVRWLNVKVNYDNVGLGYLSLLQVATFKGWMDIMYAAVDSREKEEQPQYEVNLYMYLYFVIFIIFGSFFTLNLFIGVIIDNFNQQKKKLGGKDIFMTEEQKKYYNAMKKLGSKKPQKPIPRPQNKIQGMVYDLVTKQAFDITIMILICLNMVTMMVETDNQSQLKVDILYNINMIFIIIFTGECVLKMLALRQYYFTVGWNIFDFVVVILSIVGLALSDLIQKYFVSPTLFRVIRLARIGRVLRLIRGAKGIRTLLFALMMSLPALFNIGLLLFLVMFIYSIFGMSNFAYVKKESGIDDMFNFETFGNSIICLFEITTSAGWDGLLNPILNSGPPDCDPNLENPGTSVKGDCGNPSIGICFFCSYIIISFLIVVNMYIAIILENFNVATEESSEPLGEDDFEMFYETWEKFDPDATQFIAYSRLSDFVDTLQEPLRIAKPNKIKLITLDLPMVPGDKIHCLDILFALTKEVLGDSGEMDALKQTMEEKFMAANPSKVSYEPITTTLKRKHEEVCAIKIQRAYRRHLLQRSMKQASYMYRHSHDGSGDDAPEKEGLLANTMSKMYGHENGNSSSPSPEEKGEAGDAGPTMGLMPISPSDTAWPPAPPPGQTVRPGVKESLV

Sequence of hNav1.7 (Q15858 whole entry): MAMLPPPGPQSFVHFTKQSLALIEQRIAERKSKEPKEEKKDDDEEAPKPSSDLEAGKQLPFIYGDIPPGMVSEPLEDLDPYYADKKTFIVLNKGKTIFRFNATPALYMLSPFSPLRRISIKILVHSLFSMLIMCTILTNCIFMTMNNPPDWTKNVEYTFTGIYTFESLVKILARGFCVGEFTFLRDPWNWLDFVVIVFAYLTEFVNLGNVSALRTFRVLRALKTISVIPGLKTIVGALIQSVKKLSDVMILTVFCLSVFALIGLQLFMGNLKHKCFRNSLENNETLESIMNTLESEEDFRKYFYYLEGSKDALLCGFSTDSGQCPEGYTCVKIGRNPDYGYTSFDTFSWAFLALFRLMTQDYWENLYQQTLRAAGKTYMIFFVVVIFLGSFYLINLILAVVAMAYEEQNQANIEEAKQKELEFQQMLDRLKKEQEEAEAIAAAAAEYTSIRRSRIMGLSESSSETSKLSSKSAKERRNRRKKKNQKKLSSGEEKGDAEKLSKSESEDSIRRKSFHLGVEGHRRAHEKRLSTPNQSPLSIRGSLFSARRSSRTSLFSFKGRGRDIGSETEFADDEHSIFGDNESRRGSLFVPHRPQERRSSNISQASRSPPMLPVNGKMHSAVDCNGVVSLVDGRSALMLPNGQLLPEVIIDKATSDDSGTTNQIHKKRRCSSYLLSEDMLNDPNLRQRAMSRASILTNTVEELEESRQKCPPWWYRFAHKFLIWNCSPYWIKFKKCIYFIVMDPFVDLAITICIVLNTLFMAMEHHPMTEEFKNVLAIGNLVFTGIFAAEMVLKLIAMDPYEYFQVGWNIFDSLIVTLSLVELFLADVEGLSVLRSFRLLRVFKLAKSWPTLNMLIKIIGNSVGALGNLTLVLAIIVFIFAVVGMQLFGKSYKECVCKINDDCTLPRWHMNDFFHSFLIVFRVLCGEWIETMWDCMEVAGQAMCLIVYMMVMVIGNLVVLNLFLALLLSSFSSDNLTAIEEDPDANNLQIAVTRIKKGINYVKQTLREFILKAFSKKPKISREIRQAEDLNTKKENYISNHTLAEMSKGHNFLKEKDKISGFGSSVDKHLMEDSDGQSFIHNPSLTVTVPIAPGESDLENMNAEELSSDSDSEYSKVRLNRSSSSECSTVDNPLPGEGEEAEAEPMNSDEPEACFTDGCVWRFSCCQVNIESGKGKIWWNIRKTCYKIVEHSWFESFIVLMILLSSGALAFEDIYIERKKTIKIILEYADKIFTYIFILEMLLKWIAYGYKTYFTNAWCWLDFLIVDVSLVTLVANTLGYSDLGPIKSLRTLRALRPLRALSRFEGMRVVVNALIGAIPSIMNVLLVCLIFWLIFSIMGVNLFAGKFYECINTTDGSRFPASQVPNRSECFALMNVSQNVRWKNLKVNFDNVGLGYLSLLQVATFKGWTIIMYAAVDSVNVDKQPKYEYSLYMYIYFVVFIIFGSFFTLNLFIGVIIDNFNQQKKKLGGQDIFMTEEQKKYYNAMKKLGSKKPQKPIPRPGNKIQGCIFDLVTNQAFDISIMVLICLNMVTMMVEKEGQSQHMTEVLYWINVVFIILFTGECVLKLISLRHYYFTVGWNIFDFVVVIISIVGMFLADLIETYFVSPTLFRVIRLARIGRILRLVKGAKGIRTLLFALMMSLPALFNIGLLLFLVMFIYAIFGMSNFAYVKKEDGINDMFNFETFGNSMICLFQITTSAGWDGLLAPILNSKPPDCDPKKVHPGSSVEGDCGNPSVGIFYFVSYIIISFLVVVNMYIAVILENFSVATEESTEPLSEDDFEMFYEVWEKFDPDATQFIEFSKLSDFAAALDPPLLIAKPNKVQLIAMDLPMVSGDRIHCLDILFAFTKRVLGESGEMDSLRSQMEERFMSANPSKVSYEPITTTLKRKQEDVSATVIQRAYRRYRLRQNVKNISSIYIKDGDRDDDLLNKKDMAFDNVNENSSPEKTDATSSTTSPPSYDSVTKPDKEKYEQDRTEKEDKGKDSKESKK

| Compound | IC50 (hNav1.7) [nM] | Nav1.4/Nav1.7 (hNav1.4) | IC50 (hNav1.4) [nM] |
| --- | --- | --- | --- |
| C#CC[C@H](N)C(=O)NCCCC[C@@H]1NC(=O)[C@H](CCCNC(=N)N)NC(=O)[C@H](CCCCN)NC(=O)[C@H](CO)NC(=O)[C@H](CC(=O)O)NC(=O)[C@@H]2CSSC[C@@H]3NC(=O)[C@H](CCCNC(=N)N)NC(=O)[C@H](CC(C)C)NC(=O)CNC(=O)[C@H](CCC(=O)O)NC(=O)[C@H](CSSC[C@H](NC(=O)[C@H](Cc4ccc(O)cc4)NC(=O)[C@@H](N)CCC)C(=O)N[C@@H](CCC(N)=O)C(=O)N[C@@H](CCCCN)C(=O)N[C@@H](Cc4c[nH]c5ccccc45)C(=O)N[C@@H](CCCC)C(=O)N[C@@H](Cc4c[nH]c5ccccc45)C(=O)N[C@@H]([C@@H](C)O)C(=O)N2)NC(=O)[C@H](CSSC[C@@H](C(=O)N[C@@H](CCCNC(=N)N)C(=O)N[C@@H](CCCCN)C(=O)N[C@H](C(=O)N[C@H](C(N)=O)[C@@H](C)CC)[C@@H](C)CC)NC(=O)[C@H](Cc2c[nH]c4ccccc24)NC(=O)[C@H](CC(C)C)NC(=O)[C@H](CCCCN)NC3=O)NC1=O [compound 431] | 1.63 | 13 | – |
| C#CC[C@H](N)C(=O)N[C@@H](Cc1ccc(O)cc1)C(=O)N[C@H]1CSSC[C@@H]2NC(=O)[C@@H]3CSSC[C@@H](C(=O)N[C@@H](CCCNC(=N)N)C(=O)N[C@@H](CCCCN)C(=O)N[C@@H](CCC(=O)O)C(=O)N[C@@H](Cc4c[nH]c5ccccc45)C(N)=O)NC(=O)[C@H](Cc4c[nH]c5ccccc45)NC(=O)[C@H](CC(C)C)NC(=O)[C@H](CCCCN)NC(=O)[C@H](CSSC[C@H](NC(=O)[C@H]([C@@H](C)O)NC(=O)[C@H](Cc4c[nH]c5ccccc45)NC(=O)[C@H](CCCC)NC(=O)[C@H](Cc4c[nH]c5ccccc45)NC(=O)[C@H](CCCCN)NC(=O)[C@H](CCC(N)=O)NC1=O)C(=O)N[C@@H](CC(=O)O)C(=O)N[C@@H](CO)C(=O)N[C@@H](CCCCN)C(=O)N[C@@H](CCCNC(=N)N)C(=O)N[C@@H](C)C(=O)N3)NC(=O)[C@H](CCCNC(=N)N)NC(=O)[C@H](CC(C)C)NC(=O)CNC(=O)[C@H](CCC(=O)O)NC2=O [compound 450] | 0.782 | 47 | 36.7 |
| C#CC[C@@H]1NC(=O)[C@@H]2CSSC[C@H](NC(=O)[C@H](Cc3ccc(O)cc3)NC(=O)[C@@H](N)CC#N)C(=O)N[C@@H](CCC(N)=O)C(=O)N[C@@H](CCCCN)C(=O)N[C@@H](Cc3c[nH]c4ccccc34)C(=O)N[C@@H](CCCC)C(=O)N[C@@H](Cc3c[nH]c4ccccc34)C(=O)N[C@@H]([C@@H](C)O)C(=O)N[C@H]3CSSC[C@H](NC(=O)[C@H](CCCNC(=N)N)NC(=O)[C@H](CC(C)C)NC(=O)CNC1=O)C(=O)N[C@@H](CCCCN)C(=O)N[C@@H](CC(C)C)C(=O)N[C@@H](Cc1c[nH]c4ccccc14)C(=O)N[C@H](C(=O)N[C@@H](CCCNC(=N)N)C(=O)N[C@@H](CCCCN)C(=O)N[C@@H](CCC(=O)O)C(=O)N[C@@H](Cc1c[nH]c4ccccc14)C(N)=O)CSSC[C@H](NC(=O)[C@H](C)NC(=O)[C@H](CCCNC(=N)N)NC(=O)[C@H](CCCCN)NC(=O)[C@H](CO)NC(=O)[C@H](CC(=O)O)NC3=O)C(=O)N2 [compound 452] | 2.51 | 26 | 64.6 |
| C#CC[C@@H]1NC(=O)[C@H](CC(=O)O)NC(=O)[C@@H]2CSSC[C@@H]3NC(=O)[C@H](CCCNC(=N)N)NC(=O)[C@H](CC(C)C)NC(=O)CNC(=O)[C@H](CCC(=O)O)NC(=O)[C@H](CSSC[C@H](NC(=O)[C@H](Cc4ccc(O)cc4)NC(=O)[C@@H](N)CC#N)C(=O)N[C@@H](CCC(N)=O)C(=O)N[C@@H](CCCCN)C(=O)N[C@@H](Cc4c[nH]c5ccccc45)C(=O)N[C@@H](CCCC)C(=O)N[C@@H](Cc4c[nH]c5ccccc45)C(=O)N[C@@H]([C@@H](C)O)C(=O)N2)NC(=O)[C@H](CSSC[C@@H](C(=O)N[C@@H](CCCNC(=N)N)C(=O)N[C@@H](CCCCN)C(=O)N[C@@H](CCC(=O)O)C(=O)N[C@H](C(N)=O)[C@@H](C)CC)NC(=O)[C@H](Cc2c[nH]c4ccccc24)NC(=O)[C@H](CC(C)C)NC(=O)[C@H](CCCCN)NC3=O)NC(=O)[C@H](C)NC(=O)[C@H](CCCNC(=N)N)NC(=O)[C@H](CCCCN)NC1=O [compound 520] | 0.193 | 2673 | 517 |
| C#CC[C@@H]1NC(=O)[C@H](CO)NC(=O)[C@H](CC(=O)O)NC(=O)[C@@H]2CSSC[C@@H]3NC(=O)[C@H](CCCNC(=N)N)NC(=O)[C@H](CC(C)C)NC(=O)CNC(=O)[C@H](CCC(=O)O)NC(=O)[C@H](CSSC[C@H](NC(=O)[C@H](Cc4ccc(O)cc4)NC(=O)[C@@H](N)CC#N)C(=O)N[C@@H](CCC(N)=O)C(=O)N[C@@H](CCCCN)C(=O)N[C@@H](Cc4c[nH]c5ccccc45)C(=O)N[C@@H](CCCC)C(=O)N[C@@H](Cc4c[nH]c5ccccc45)C(=O)N[C@@H]([C@@H](C)O)C(=O)N2)NC(=O)[C@H](CSSC[C@@H](C(=O)N[C@@H](CCCNC(=N)N)C(=O)N[C@@H](CCCCN)C(=O)N[C@@H](CCC(=O)O)C(=O)N[C@H](C(N)=O)[C@@H](C)CC)NC(=O)[C@H](Cc2c[nH]c4ccccc24)NC(=O)[C@H](CC(C)C)NC(=O)[C@H](CCCCN)NC3=O)NC(=O)[C@H](C)NC(=O)[C@H](CCCNC(=N)N)NC1=O [compound 521] | 1.48 | 62 | 92.1 |
| C#CC[C@H](N)C(=O)N[C@@H](Cc1ccc(O)cc1)C(=O)N[C@H]1CSSC[C@@H]2NC(=O)[C@@H]3CSSC[C@@H](C(=O)N[C@@H](CCCNC(=N)N)C(=O)N[C@@H](CCCCN)C(=O)N[C@@H](CC(C)C)C(=O)N[C@H](C(N)=O)[C@@H](C)CC)NC(=O)[C@H](Cc4c[nH]c5ccccc45)NC(=O)[C@H](CC(C)C)NC(=O)[C@H](CCCCN)NC(=O)[C@H](CSSC[C@H](NC(=O)[C@H]([C@@H](C)O)NC(=O)[C@H](Cc4c[nH]c5ccccc45)NC(=O)[C@H](CCCC)NC(=O)[C@H](Cc4c[nH]c5ccccc45)NC(=O)[C@H](CCCCN)NC(=O)[C@H](CCC(N)=O)NC1=O)C(=O)N[C@@H](CC(=O)O)C(=O)N[C@@H](CO)C(=O)N[C@@H](CCCCN)C(=O)N[C@@H](CCCNC(=N)N)C(=O)N[C@@H](C)C(=O)N3)NC(=O)[C@H](CCCNC(=N)N)NC(=O)[C@H](CC(C)C)NC(=O)CNC(=O)[C@H](CCC(=O)O)NC2=O [compound 655] | 2.91 | 9 | 25.9 |
| C#CC[C@H](N)C(=O)N[C@@H](Cc1ccc(O)cc1)C(=O)N[C@H]1CSSC[C@@H]2NC(=O)[C@@H]3CSSC[C@@H](C(=O)N[C@@H](CCCNC(=N)N)C(=O)N[C@@H](CCCCN)C(=O)N4CCC[C@H]4C(=O)N[C@H](C(N)=O)[C@@H](C)CC)NC(=O)[C@H](Cc4c[nH]c5ccccc45)NC(=O)[C@H](CC(C)C)NC(=O)[C@H](CCCCN)NC(=O)[C@H](CSSC[C@H](NC(=O)[C@H]([C@@H](C)O)NC(=O)[C@H](Cc4c[nH]c5ccccc45)NC(=O)[C@H](CCCC)NC(=O)[C@H](Cc4c[nH]c5ccccc45)NC(=O)[C@H](CCCCN)NC(=O)[C@H](CCC(N)=O)NC1=O)C(=O)N[C@@H](CC(=O)O)C(=O)N[C@@H](CO)C(=O)N[C@@H](CCCCN)C(=O)N[C@@H](CCCNC(=N)N)C(=O)N[C@@H](C)C(=O)N3)NC(=O)[C@H](CCCNC(=N)N)NC(=O)[C@H](CC(C)C)NC(=O)CNC(=O)[C@H](CCC(=O)O)NC2=O [compound 657] | 1.97 | 105 | 206 |
| C#CC[C@H](N)C(=O)N[C@@H](Cc1ccc(O)cc1)C(=O)N[C@H]1CSSC[C@@H]2NC(=O)[C@@H]3CSSC[C@@H](C(=O)N[C@@H](CCCNC(=N)N)C(=O)N[C@@H](CCCCN)C(=O)N[C@@H](CCC(=O)O)C(=O)N[C@H](C(N)=O)[C@@H](C)CC)NC(=O)[C@H](Cc4c[nH]c5ccccc45)NC(=O)[C@H](CC(C)C)NC(=O)[C@H](CCCCN)NC(=O)[C@H](CSSC[C@H](NC(=O)[C@H]([C@@H](C)O)NC(=O)[C@H](Cc4c[nH]c5ccccc45)NC(=O)[C@H](CCCC)NC(=O)[C@H](Cc4c[nH]c5ccccc45)NC(=O)[C@H](CCCCN)NC(=O)[C@H](CCC(N)=O)NC1=O)C(=O)N[C@@H](CC(=O)O)C(=O)N[C@@H](CO)C(=O)N[C@@H](CCC(=O)O)C(=O)N[C@@H](CCCNC(=N)N)C(=O)N[C@@H](C)C(=O)N3)NC(=O)[C@H](CCCNC(=N)N)NC(=O)[C@H](CC(C)C)NC(=O)CNC(=O)[C@H](CCCCN)NC2=O [compound 728] | 8.76 | 46 | 405 |
| C#CC[C@H](N)C(=O)N[C@@H](Cc1ccc(O)cc1)C(=O)N[C@H]1CSSC[C@@H]2NC(=O)[C@@H]3CSSC[C@@H](C(=O)N[C@@H](CCCNC(=N)N)C(=O)N[C@@H](CCCCN)C(=O)N[C@H](C(=O)N[C@H](C(N)=O)[C@@H](C)CC)[C@@H](C)CC)NC(=O)[C@H](Cc4c[nH]c5ccccc45)NC(=O)[C@H](CC(C)C)NC(=O)[C@H](CCCCN)NC(=O)[C@H](CSSC[C@H](NC(=O)[C@H]([C@@H](C)O)NC(=O)[C@H](Cc4c[nH]c5ccccc45)NC(=O)[C@H](CCCC)NC(=O)[C@H](Cc4c[nH]c5ccccc45)NC(=O)[C@H](CCCCN)NC(=O)[C@H](CCC(N)=O)NC1=O)C(=O)N[C@@H](CC(=O)O)C(=O)N[C@@H](CO)C(=O)N[C@@H](CCC(=O)O)C(=O)N[C@@H](CCCNC(=N)N)C(=O)N[C@@H](C)C(=O)N3)NC(=O)[C@H](CCCNC(=N)N)NC(=O)[C@H](CC(C)C)NC(=O)CNC(=O)[C@H](CCCCN)NC2=O [compound 729] | 1.87 | 4 | 7.6 |
| C#CC[C@H](N)C(=O)N[C@@H](Cc1ccc(O)cc1)C(=O)N[C@H]1CSSC[C@@H]2NC(=O)[C@@H]3CSSC[C@@H](C(=O)N[C@@H](CCCNC(=N)N)C(=O)N[C@@H](CCCCN)C(=O)N[C@H](C(=O)N[C@H](C(N)=O)[C@@H](C)CC)[C@@H](C)CC)NC(=O)[C@H](Cc4c[nH]c5ccccc45)NC(=O)[C@H](CC(C)C)NC(=O)[C@H](CCCCN)NC(=O)[C@H](CSSC[C@H](NC(=O)[C@H]([C@@H](C)O)NC(=O)[C@H](Cc4c[nH]c5ccccc45)NC(=O)[C@H](CCCC)NC(=O)[C@H](Cc4c[nH]c5ccccc45)NC(=O)[C@H](CCCCN)NC(=O)[C@H](CCC(N)=O)NC1=O)C(=O)N[C@@H](CC(=O)O)C(=O)N[C@@H](CO)C(=O)N[C@@H](CCC(=O)O)C(=O)N[C@@H](CCCNC(=N)N)C(=O)N[C@@H](C)C(=O)N3)NC(=O)[C@H](CCCNC(=N)N)NC(=O)[C@H](CC(C)C)NC(=O)CNC(=O)[C@H](CCC(=O)O)NC2=O [compound 730] | 1.19 | 31 | 37.2 |
